Assay results published in US20060165743A1, “Method and device to control and condition the behavior of the varroa destructor mite in a beehive, or in other environment where bees reproduce” (Universita' Degli Studi Di Udine, priority 2002, published 2006).

Assays:
Varroa destructor mite [1] = assay: Activity test in the beehive (cells with worker bee larvae near to opercolature); assay type: in vivo; conditions: 100 ng in 1 μl solvent per cell, 18 hours after treatment
Description: (±)-2-hydroxyhexanoic acid was also tested in the beehive, by applying, in the cells with worker bee larvae near to opercolature, a solution of 100 ng of (±)-2-hydroxyhexanoic acid dissolved in 1 μl of a suitable solvent. The infestation of such cells was compared with that of the control cells treated with the solvent alone: the cells used were examined 18 hours after treatment and the Varroa destructor mites present in the treated cells and in the control cells were counted.

Varroa destructor mite [2] = assay: Activity test in artificial observation plates (treated wells vs solvent control wells, each with a bee larva); assay type: in vivo; conditions: for AVERAGE ACTIVITY TREATED: 6 observations in 30 min, 34° C., 75% RH, dark
Description: The activity of (±)-2-hydroxyhexanoic acid and of (±)-3-hydroxyhexanoic acid, dissolved in water, was tested in a plate 10 (FIG. 1). Each plate 10 consists of a parallelepiped of sodium-calcium glass with a 70×70 mm square base, and a height of 12 mm, in which four cylindrical wells 12a, 12b, are made, each with a diameter of 7 mm and a depth of 10 mm, similar in size to bee cells. The wells 12a, 12b are equidistant from the center. At the center of the plate 10 a Varroa destructor mite was placed, indicated by the number 11. To delimit the space in which the mite 11 could move, the plates 10 were closed with a cover element 15 consisting of a glass disk joined to a stainless steel spacer ring 17. Two opposite wells 12a of each plate 10 were treated with (±)-2-hydroxyhexanoic acid or with (±)-3-hydroxyhexanoic acid, dissolved in water; the other two wells 12b, on the contrary, were used as controls and were treated only with the solvent. In each individual well 12a, 12b of the plate 10 a bee larva 20 was then placed. The biological activity test on (±)-2-hydroxyhexanoic acid provides a first test during which 1 ng of (±)-2-hydroxyhexanoic acid is tested, a second test during which 10 ng of (±)-2-hydroxyhexanoic acid are tested and a third test during which 100 ng are tested and a fourth test during which 1000 ng are tested. The biological activity test on (±)-3-hydroxyhexanoic acid provides a first test during which 10 ng of (±)-3-hydroxyhexanoic acid are tested, a second test during which 100 ng of (±)-3-hydroxyhexanoic acid are tested, and a third test during which 1000 ng are tested. At the beginning of each test the Varroa destructor mite 11, in this case a female adult, is located at the center of each plate 10 with a thin brush; each plate 10 is then closed and transferred to a thermostatic chamber. Subsequently, the position of the mite 11 was monitored every 5 minutes for a total of 30 minutes, to a total of 6 observations. 20 plates were used for every test, with 4 repetitions, to a total of 80 plates. During the tests the temperature and relative humidity were kept respectively around 34° C. and 75%; the inside of the thermostatic chamber was kept dark. The action of the substances tested on the Varroa destructor mite was evaluated by calculating an average value for the treated wells 12a and the control wells 12b, equal to the average number of times in which the Varroa destructor mite was observed inside one or the other in the 6 observations made in the course of the 30 minutes of each test. The average values thus obtained are representative, with a certain approximation, of the time spent by the mite in the two types of well 12a, 12b. The attractiveness of a substance thus determines higher average values for the treated wells 12a with respect to those of the control wells 12b.

Compound	Number of Varroa destructor mites per cell in treated cells vs non-treated cells, in words (Varroa destructor mite [1])	N. OF VARROA DESTRUCTOR MITE PER CELL TREATED, Average (Varroa destructor mite [1]; average of 5 replications)	AVERAGE ACTIVITY TREATED (Varroa destructor mite [2]; 1 ng in treated wells)	AVERAGE ACTIVITY TREATED (Varroa destructor mite [2]; 10 ng in treated wells)	AVERAGE ACTIVITY TREATED (Varroa destructor mite [2]; 100 ng in treated wells)	AVERAGE ACTIVITY TREATED (Varroa destructor mite [2]; 1000 ng in treated wells)	Activity on / attractiveness to the Varroa destructor mite (infestation of treated wells vs control wells), in words (Varroa destructor mite [2]; dose 10 ng)	Activity on / attractiveness to the Varroa destructor mite (infestation of treated wells vs control wells), in words (Varroa destructor mite [2]; dose 100 ng)
CCCCC(O)C(=O)O (racemic) [(±)-2-hydroxyhexanoic acid]	significantly greater	0.60	22.3	31.8	34.7	23.0	active on and attractive to the Varroa destructor mite	active on and attractive to the Varroa destructor mite
CCCCCCC(O)C(=O)O (racemic) [(±)-2-hydroxyoctanoic acid, reference compound]					29.5			not found to be active
CCCC(O)CC(=O)O (racemic) [(±)-3-hydroxyhexanoic acid]				24.5	36.8	23.3		active on and attractive to the Varroa destructor mite
